The values below come from patent publication US12577206B2 (BRISTOL-MYERS SQUIBB COMPANY, priority 2020, dated 2026).

In one experiment the target is T1, human FPR1 (Homo sapiens, UniProt P21462).
T1 sequence (P21462 1-350): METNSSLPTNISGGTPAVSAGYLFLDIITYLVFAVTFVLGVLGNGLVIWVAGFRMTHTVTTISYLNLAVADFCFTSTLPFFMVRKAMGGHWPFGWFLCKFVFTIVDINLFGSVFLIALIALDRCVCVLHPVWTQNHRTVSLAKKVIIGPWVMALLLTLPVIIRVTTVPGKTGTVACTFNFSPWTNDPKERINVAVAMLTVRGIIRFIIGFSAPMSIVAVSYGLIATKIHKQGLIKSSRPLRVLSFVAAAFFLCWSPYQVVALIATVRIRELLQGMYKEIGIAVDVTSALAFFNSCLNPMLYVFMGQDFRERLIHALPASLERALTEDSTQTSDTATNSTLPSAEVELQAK
Put plainly: FPR1 cyclic adenosine monophosphate (cAMP) assay. It counts as cell-based. The conditions noted are these: CHO cells overexpressing human FPR1; forskolin 10 μM; inhibition of cAMP production; HTRF; read-out: hFPR1 cAMP2 EC50. In a few lines:
(§1)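 Inhibition of forskolin-stimulated cAMP (final forskolin 5 μM for FPR2, 10 μM for FPR1; IBMX 200 μM) was measured by HTRF in recombinant CHO cells after 30 min at room temperature.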

A further experiment addresses T2, human FPR2 (Homo sapiens, UniProt P25090).
T2 sequence (P25090 1-351): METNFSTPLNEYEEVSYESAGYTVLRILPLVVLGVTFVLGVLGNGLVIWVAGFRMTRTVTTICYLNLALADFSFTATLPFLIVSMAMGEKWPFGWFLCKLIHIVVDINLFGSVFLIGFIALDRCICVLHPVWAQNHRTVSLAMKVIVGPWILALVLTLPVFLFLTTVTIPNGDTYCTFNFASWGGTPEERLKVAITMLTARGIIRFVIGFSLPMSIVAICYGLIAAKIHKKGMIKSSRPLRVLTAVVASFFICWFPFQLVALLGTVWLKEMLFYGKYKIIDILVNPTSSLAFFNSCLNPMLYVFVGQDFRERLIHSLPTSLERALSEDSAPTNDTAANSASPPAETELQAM
The experiment in a line: FPR2 cyclic adenosine monophosphate (cAMP) assay. It counts as cell-based. The conditions noted are these: CHO cells overexpressing human FPR2; forskolin 5 μM; inhibition of cAMP production; HTRF; read-out: hFPR2 cAMP2 EC50. In a few lines:
as §1

On to `COc1cc(F)c(-c2c(NC(=O)c3ccc(OC(F)F)cc3)c(=O)n(-c3cccc(N(C)C)n3)n2C)c(F)c1` [Example 82, N-[5-(2,6-difluoro-4-methoxyphenyl)-2-[6-(dimethylamino)pyridin-2-yl]-1-methy-3-oxo-2,3-dihydro-1H-pyrazol-4-yl]-4-(difluoromethoxy)benzamide], for which the figures for the EC50 at human FPR1 and on human FPR2 were 520 nM and 2 nM, respectively.
Consider `COc1cc(F)c(-c2c(NC(=O)c3ccc(OC(F)F)cc3)c(=O)n(-c3nc(C(C)(C)C)ccc3C#N)n2C)c(F)c1` [Example 190, N-[2-(6-tert-butyl-3-cyanopyridin-2-yl)-5-(2,6-difluoro-4-methoxyphenyl)-1-methyl-3-oxo-2,3-dihydro-1H-pyrazol-4-yl]-4-(difluoromethoxy)benzamide], for which the EC50 on human FPR1 was more than 10000 nM; on human FPR2, 3 nM.
Consider `COc1cc(F)c(-c2c(NC(=O)c3ccc(OC(F)F)cc3)c(=O)n(-c3ccc(-c4ccccc4)cn3)n2C)c(F)c1` [Example 51, N-[5-(2,6-difluoro-4-methoxyphenyl)-1-methyl-3-oxo-2-(5-phenylpyridin-2-yl)-2,3-dihydro-1H-pyrazol-4-yl]-4-(difluoromethoxy)benzamide], for which the EC50 on human FPR1 came to 1100 nM; at human FPR2, 18 nM.
For `COC(=O)c1cccc(-n2c(=O)c(NC(=O)c3ccc(OC(F)F)cc3)c(-c3c(F)cc(OC)cc3F)n2C)c1` [Example 113, methyl 3-[3-(2,6-difluoro-4-methoxyphenyl)-4-[4-(difluoromethoxy)benzamido]-2-methyl-5-oxo-2,5-dihydro-1H-pyrazol-1-yl]benzoate] the same measures were 2 nM and 2 nM.
For `COc1cc(F)c(-c2c(NC(=O)c3ccc(OC(F)F)cc3)c(=O)n(-c3cccc(CO)n3)n2C)c(F)c1` [Example 81, N-[5-(2,6-difluoro-4-methoxyphenyl)-2-[6-(hydroxymethyl)pyridin-2-yl]-1-methyl-3-oxo-2,3-dihydro-1H-pyrazol-4-yl]-4-(difluoromethoxy)benzamide] the same measures were more than 10000 nM and 17 nM.
On the same counts, the results for `COc1cc(F)c(-c2c(NC(=O)c3ccc(OC(F)F)cc3)c(=O)n(-c3nc(C(F)(F)F)ccc3C#N)n2C)c(F)c1` [Example 157, N-{2-[3-cyano-6-(trifluoromethyl)pyridin-2-yl]-5-(2,6-difluoro-4-methoxyphenyl)-1-methyl-3-oxo-2,3-dihydro-1H-pyrazol-4-yl}-4-(difluoromethoxy)benzamide] are more than 10000 nM and 4 nM.
In the case of `COc1cc(F)c(-c2c(NC(=O)c3ccc(OC(F)F)cc3)c(=O)n(-c3cc(OCCO)cc(C(F)(F)F)n3)n2C)c(F)c1` [Example 348, N-(5-(2,6-Difluoro-4-methoxyphenyl)-2-(4-(2-hydroxyethoxy)-6-(trifluoromethyl)pyridin-2-yl)-1-methyl-3-oxo-2,3-dihydro-1H-pyrazol-4-yl)-4-(difluoromethoxy)benzamide], the results for the EC50 on human FPR1 and at human FPR2 were 2200 nM and 20 nM, respectively.
For the compound `COc1cc(F)c(-c2c(NC(=O)c3ccc(OC(F)F)cc3)c(=O)n(-c3nc(NC4(C)CC4)ccc3C(F)(F)F)n2C)c(F)c1` [Example 266, N-[5-(2,6-difluoro-4-methoxyphenyl)-1-methyl-2-{6-[(1-methylcyclopropyl)amino]-3-(trifluoromethyl)pyridin-2-yl}-3-oxo-2,3-dihydro-1H-pyrazol-4-yl]-4-(difluoromethoxy)benzamide], the EC50 was more than 10000 nM at human FPR1 and 4 nM at human FPR2.
In the case of `COc1cc(F)c(-c2c(NC(=O)c3ccc(OC(F)F)cc3)c(=O)n(-c3cccc(OC)c3Cl)n2C)c(F)c1` [Example 181, N-[2-(2-chloro-3-methoxyphenyl)-5-(2,6-difluoro-4-methoxyphenyl)-1-methyl-3-oxo-2,3-dihydro-1H-pyrazol-4-yl]-4-(difluoromethoxy)benzamide], the EC50 at human FPR1 worked out at 140 nM; at human FPR2 it was 6 nM.
In the case of `COc1cc(F)c(-c2c(NC(=O)c3ccc(OC(F)F)cc3)c(=O)n(-c3nc(NC4(CO)CC4)ccc3C(F)(F)F)n2C)c(F)c1` [Example 231, N-[5-(2,6-difluoro-4-methoxyphenyl)-2-(6-{[1-(hydroxymethyl)cyclopropyl]amino}-3-(trifluoromethyl)pyridin-2-yl)-1-methyl-3-oxo-2,3-dihydro-1H-pyrazol-4-yl]-4-(difluoromethoxy)benzamide], the EC50 on human FPR1 is more than 10000 nM; on human FPR2, 5 nM.
On the same counts, the results for `COc1cc(F)c(-c2c(NC(=O)c3ccc(OC(F)F)cc3)c(=O)n(-c3cccc(N4CC[C@H](O)C4)n3)n2C)c(F)c1` [Example 102, N-[5-(2,6-difluoro-4-methoxyphenyl)-2-{6-[(3S)-3-hydroxypyrrolidin-1-yl]pyridin-2-yl}-1-methyl-3-oxo-2,3-dihydro-1H-pyrazol-4-yl]-4-(difluoromethoxy)benzamide] are 1000 nM and 2 nM.
For `COc1cc(F)c(-c2c(NC(=O)c3ccc(OC(F)F)cc3)c(=O)n(-c3nc(N4CCN(CC(F)(F)F)CC4)ccc3C(F)(F)F)n2C)c(F)c1` [Example 269, N-[5-(2,6-difluoro-4-methoxyphenyl)-1-methyl-3-oxo-2-{6-[4-(2,2,2-trifluoroethyl)piperazin-1-yl]-3-(trifluoromethyl)pyridin-2-yl}-2,3-dihydro-1H-pyrazol-4-yl]-4-(difluoromethoxy)benzamide], the EC50 at human FPR1 turned out to be 3300 nM; at human FPR2 it was 3 nM.
Take `COc1ccc(-c2c(NC(=O)c3ccc(OC(F)F)cc3)c(=O)n(-c3ncccc3C(F)(F)F)n2C)cc1F` [Example 293, 4-(difluoromethoxy)-N-[5-(3-fluoro-4-methoxyphenyl)-1-methyl-3-oxo-2-[3-(trifluoromethyl)pyridin-2-yl]-2,3-dihydro-1H-pyrazol-4-yl]benzamide]: the EC50 on human FPR1 turned out to be 1200 nM; at human FPR2 it was 9 nM.
For `[2H]C([2H])([2H])Oc1cc(F)c(-c2c(NC(=O)c3ccc(OC(F)F)cc3)c(=O)n(-c3cc(C(F)F)ccn3)n2C)c(F)c1` [Example 397, N-(5-(2,6-difluoro-4-(methoxy-d3)phenyl)-2-(4-(difluoromethyl)pyridin-2-yl)-1-methyl-3-oxo-2,3-dihydro-1H-pyrazol-4-yl)-4-(difluoromethoxy)benzamide], the EC50 was more than 10000 nM at human FPR1 and 8 nM on human FPR2.
On the same counts, the results for `COc1cc(F)c(-c2c(NC(=O)c3ccc(OC(F)F)cc3)c(=O)n(-c3nc(N(C4CC4)C4CC4)ccc3C(F)(F)F)n2C)c(F)c1` [Example 267, N-{2-[6-(dicyclopropylamino)-3-(trifluoromethyl)pyridin-2-yl]-5-(2,6-difluoro-4-methoxyphenyl)-1-methyl-3-oxo-2,3-dihydro-1H-pyrazol-4-yl}-4-(difluoromethoxy)benzamide] are 7100 nM and 2 nM.
With `COc1cc(F)c(-c2c(NC(=O)c3ccc(OC(F)F)cc3)c(=O)n(-c3nc(Cl)ccc3N3CCN(C)CC3)n2C)c(F)c1` [Example 217, N-{2-[6-chloro-3-(4-methylpiperazin-1-yl)pyridin-2-yl]-5-(2,6-difluoro-4-methoxyphenyl)-1-methyl-3-oxo-2,3-dihydro-1H-pyrazol-4-yl}-4-(difluoromethoxy)benzamide], the EC50 is more than 10000 nM on human FPR1 and 6 nM on human FPR2.
With `COc1cc(F)c(-c2c(NC(=O)c3ccc(OC(F)F)cc3)c(=O)n(-c3nc(N4CCC[C@H]4CO)ccc3C(F)(F)F)n2C)c(F)c1` [Example 258, N-[5-(2,6-difluoro-4-methoxyphenyl)-2-{6-[(2S)-2-(hydroxymethyl)pyrrolidin-1-yl]-3-(trifluoromethyl)pyridin-2-yl}-1-methyl-3-oxo-2,3-dihydro-1H-pyrazol-4-yl]-4-(difluoromethoxy)benzamide], the EC50 on human FPR1 is more than 5000 nM; at human FPR2, 9 nM.
As to `COc1cc(OC(CO)C(F)(F)F)nc(-n2c(=O)c(NC(=O)c3ccc(OC(F)F)cc3)c(-c3c(F)cc(OC)cc3F)n2C)c1` (centres unmarked) [Example 381, N-(5-(2,6-Difluoro-4-methoxyphenyl)-2-(4-methoxy-6-((1,1,1-trifluoro-3-hydroxypropan-2-yl)oxy)pyridin-2-yl)-1-methyl-3-oxo-2,3-dihydro-1H-pyrazol-4-yl)-4-(difluoromethoxy)benzamide], the EC50 on human FPR1 is 1900 nM; at human FPR2, 2 nM.
For `COc1cc(C)nc(-n2c(=O)c(NC(=O)c3ccc(OC(F)F)cc3)c(-c3c(F)cc(OC)cc3F)n2C)c1` [Example 376, N-(5-(2,6-Difluoro-4-methoxyphenyl)-2-(4-methoxy-6-methylpyridin-2-yl)-1-methyl-3-oxo-2,3-dihydro-1H-pyrazol-4-yl)-4-(difluoromethoxy)benzamide] the same measures were more than 10000 nM and 5 nM.
